Laboratory results reported in US10736933B2, “Peptide-induced NK cell activation” (priority 2015, dated 2020).

Tested on: NKL cell line transfected with KIR2DS2
Test: Vav1 phosphorylation (pVav1 Western blot) in NKL cells transfected with KIR2DS2
Type: cell-based
Details: L721.174 (HLA-Cw*0102) cells loaded with peptide; KIR2DS2-transfected NKL, 5 minutes
Method: A. L721.174 cells were incubated with indicated peptides. The cells were then incubated with the NK cell line transfected with KIR2DS2. The cells were lysed and the KIR2DS2 was then immunoprecipitated from the mixture using the GL183 antibody coupled to protein-G beads. The immune precipitate was analysed by Western blotting using a phosphotyrosine antibody. The membrane was then stripped and reprobed with an antibody to DAP12 the molecule that transduces a positive signal from KIR2DS2. Shown are the regions on the blots at the level of DAP12 (12-15 kDa). B. L721.174 cells were incubated with indicated peptides. The cells were then incubated with the NK cell line transfected with KIR2DS2 or transfected with KIR2DL2. The cells were lysed in 1% NP-40 and then analysed by Western blotting using antibodies to pVav1 and then following stripping of the membrane to Vav1. Shown are Western blots around the 98 kDa region, and below them the corresponding densitometries for 3 independent experiments.
FIG. 7 1×10^6 L721.221-HLA-C*0304-ICP47 cells were incubated overnight at 26° C. with indicated peptides at a concentration of […]. The cells were then incubated with the NKL cell line transfected with KIR2DS2 or transfected with KIR2DL2 for 5 minutes. The cells were lysed in 1% NP-40 and then analysed by Western blotting using antibodies to pVav1 and then following stripping of the membrane to Vav1. Shown are Western blots around the 98 kDa region, and below them the corresponding densitometries for 2 independent experiments.
FIG. 14—The Dengue virus peptide IVDLMCHATF (SEQ ID NO: 1) activates KIR2DS2 positive NK cells. 174 cells were incubated with the IVDLMCHATF (SEQ ID NO: 1) and then KIR2DS2-positive transfected NKL cells or KIR2DL2-positve transfected NKL cells. Activation of NK cells was assessed by western blotting for phosphorylated Vav1, and compared to total Vav1.
With reference to FIG. 6A, 1×10^6 L721.174 cells were incubated overnight at 26° C. with indicated peptides at a concentration of […]. The cells were then incubated with the NK cell line transfected with KIR2DS2 for 5 minutes. The cells were lysed in 1% digitonin buffer and the KIR2DS2 was then immunoprecipitated from the mixture using the GL183 antibody coupled to protein-G beads. The immune precipitate was analysed by Western blotting using a phosphotyrosine antibody. […] The cells were lysed in 1% NP-40 and then analysed by Western blotting using antibodies to pVav1 and then following stripping of the membrane to Vav1. […]
With reference to FIG. 7, 1×10^6 HLA-C*0304:ICP47:721.221 cells were incubated overnight at 26° C. with indicated peptides at a concentration of […]. […] The cells were lysed in 1% NP-40 and then analysed by Western blotting using antibodies to pVav1 and then following stripping of the membrane to Vav1. […]

Q: IVDLMCHATF [Dengue virus peptide] was tested. Which “activation of NK cells (phosphorylated Vav1 compared to total Vav1)” value did it give?
A: The value was “activated KIR2DS2”.

Q: How did the “activation of NK cells (phosphorylated Vav1 compared to total Vav1)” value turn out when “LNPSVAATL [peptide recognized by KIR2DS2-positive NK cells]” was run?
A: The value was “activates NK cells expressing KIR2DS2”.
